Patent US10662205B2, “Cyclic boronic acid ester derivatives and therapeutic uses thereof” (priority 2014, dated 2020)
Read-outs that look alike come from different tables or passages of the source.

Assays:
[1] = test system: KP1005 (CTX-M-14); assay: Aztreonam potentiation (MPC@4); format: cell-based; settings: aztreonam 4 μg/mL
[2] = test system: ec308 (SHV-5); assay: Aztreonam potentiation (MPC@4); format: cell-based; settings: aztreonam 4 μg/mL
[3] = test system: KP1010 (SHV-12); assay: Aztreonam potentiation (MPC@4); format: cell-based; settings: aztreonam 4 μg/mL
[4] = test system: ec302 (TEM-10); assay: Aztreonam potentiation (MPC@4); format: cell-based; settings: aztreonam 4 μg/mL
[5] = test system: KP1004 (KPC-2); assay: Aztreonam potentiation (MPC@4); format: cell-based; settings: aztreonam 4 μg/mL
[6] = test system: ECL1002; assay: Aztreonam potentiation (MPC@4); format: cell-based; settings: aztreonam 4 μg/mL
[7] = test system: EC1010 (CMY-6); assay: Aztreonam potentiation (MPC@4); format: cell-based; settings: aztreonam 4 μg/mL
[8] = test system: KP1005 (CTX-M-14); assay: Tigemonam potentiation (MPC@4); format: cell-based; settings: tigemonam 4 μg/mL
[9] = test system: KP1009 (CTX-M-15); assay: Tigemonam potentiation (MPC@4); format: cell-based
[10] = test system: ec308 (SHV-5); assay: Tigemonam potentiation (MPC@4); format: cell-based; settings: tigemonam 4 μg/mL
[11] = test system: KP1010 (SHV-12); assay: Tigemonam potentiation (MPC@4); format: cell-based
[12] = test system: ec302 (TEM-10); assay: Tigemonam potentiation (MPC@4); format: cell-based; settings: tigemonam 4 μg/mL
[13] = test system: ECL1002; assay: Tigemonam potentiation (MPC@4); format: cell-based; settings: tigemonam 4 μg/mL
[14] = test system: EC1010 (CMY-6); assay: Tigemonam potentiation (MPC@4); format: cell-based
[15] = target: CTX-M-14 (Escherichia coli, UniProt Q9L5C7); assay: Inhibition of nitrocefin cleavage by purified enzyme (Ki); format: biochemical; settings: nitrocefin reporter substrate; 10 min preincubation; read-out: Ki CTX-M-14, NCF
Protocol: (§1) Ki values of inhibition of purified class A, C and D enzymes were determined spectrophotometrically using nitrocefin as reporter substrate. Purified enzymes were mixed with various concentrations of inhibitors in reaction buffer and incubated for 10 min at room temperature. Nitrocefin was added and substrate cleavage profiles were recorded at 490 nm every 10 sec for 10 min.

[16] = target: SHV-12 (Klebsiella pneumoniae, UniProt P0AD64, E235K/G234S/L31Q); assay: as above; format: biochemical
Protocol: as §1

[17] = target: CMY-2 (Klebsiella pneumoniae, UniProt Q48434); assay: as above; format: biochemical
Protocol: (§2) Ki values of inhibition of purified class A, C and D enzymes were determined spectrophotometrically using nitrocefin as reporter substrate. Purified enzymes were mixed with various concentrations of inhibitors in reaction buffer and incubated for 10 min at room temperature. Nitrocefin was added and substrate cleavage profiles were recorded at 490 nm every 10 sec for 10 min. These experiments confirmed that the described compounds are inhibitors with a broad-spectrum of activity towards various β-lactamases.

[18] = target: KPC-2 (Klebsiella pneumoniae, UniProt Q9F663); assay: as above; format: biochemical; settings: nitrocefin reporter substrate; 10 min preincubation; read-out: Ki KPC-2, NCF
Protocol: as §2

[19] = target: OXA-48 (Klebsiella pneumoniae, UniProt Q6XEC0); assay: as above; format: biochemical; settings: nitrocefin reporter substrate; 10 min preincubation; read-out: Ki OXA-48, NCF
Protocol: as §2

[20] = target: P99 (Enterobacter cloacae, UniProt P05364); assay: biochemical; settings: nitrocefin reporter substrate; 10 min preincubation; read-out: Ki P99, NCF
Protocol: as §1

[21] = test system: KP1004 (KPC-2); assay: Biapenem potentiation (MPC@1); settings: biapenem 1 μg/mL
[22] = test system: KP1086 (OXA-48); assay: Biapenem potentiation (MPC@1); settings: biapenem 1 μg/mL
[23] = test system: KP1009 (CTX-M-15); assay: Aztreonam potentiation (MPC@4); format: cell-based; settings: aztreonam 4 μg/mL
[24] = test system: PAM1032/KPC-2; assay: Biapenem potentiation MPC64, efflux proficient strain; format: cell-based, Pseudomonas aeruginosa; design: unit not given here; settings: efflux proficient (MexAB-OprM overexpressed); decrease biapenem MIC 64-fold, 32 to 0.5 μg/ml
Protocol: (§3) Efflux of BLIs from Pseudomonas aeruginosa by the MexAB-OprM efflux pump was also evaluated. The plasmid expressing the gene encoding KPC-2 was introduced into two strains of P. aeruginosa, PAM1032 and PAM1154 that overexpressed or lacked MexAB-OprM, respectively. Due to expression of KPC-2 both strains became resistant to biapenem. […] Potency of BLIs to potentiate biapenem in these strains was determined. […] The ratio of MPC64 values for each BLI in PAM1032/KPC-2 (efflux proficient) and PAM1154/KPC-2 (efflux deficient) was determined to generate the Efflux Index (EI).

[25] = test system: PAM1154/KPC-2; assay: Biapenem potentiation MPC64, efflux deficient strain; format: cell-based, Pseudomonas aeruginosa; design: unit not given here; settings: efflux deficient (lacks MexAB-OprM); decrease biapenem MIC 64-fold, 32 to 0.5 μg/ml
Protocol: as §3

[26] = tigemonam 4 μg/mL, EC1010, CMY-6
[27] = nitrocefin reporter substrate, 10 min preincubation, read-out: Ki CMY-2, NCF

Chain of CTX-M-14 (Q9L5C7 29-291): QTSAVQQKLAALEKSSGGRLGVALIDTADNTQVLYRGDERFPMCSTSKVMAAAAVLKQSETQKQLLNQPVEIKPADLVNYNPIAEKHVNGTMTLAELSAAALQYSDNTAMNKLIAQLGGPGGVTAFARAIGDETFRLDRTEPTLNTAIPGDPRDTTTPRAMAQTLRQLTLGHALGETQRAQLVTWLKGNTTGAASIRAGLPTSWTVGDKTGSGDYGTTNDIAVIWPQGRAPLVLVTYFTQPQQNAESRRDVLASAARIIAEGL
Chain of OXA-48 (Q6XEC0 23-265, looked up, species assumed): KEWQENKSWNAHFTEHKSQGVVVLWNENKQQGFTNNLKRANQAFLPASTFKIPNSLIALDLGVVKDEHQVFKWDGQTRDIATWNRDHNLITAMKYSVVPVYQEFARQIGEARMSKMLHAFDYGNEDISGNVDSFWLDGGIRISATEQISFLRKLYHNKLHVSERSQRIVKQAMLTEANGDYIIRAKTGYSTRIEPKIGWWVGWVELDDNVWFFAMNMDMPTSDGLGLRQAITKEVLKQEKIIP
Chain of KPC-2 (Q9F663 25-293, looked up, species assumed): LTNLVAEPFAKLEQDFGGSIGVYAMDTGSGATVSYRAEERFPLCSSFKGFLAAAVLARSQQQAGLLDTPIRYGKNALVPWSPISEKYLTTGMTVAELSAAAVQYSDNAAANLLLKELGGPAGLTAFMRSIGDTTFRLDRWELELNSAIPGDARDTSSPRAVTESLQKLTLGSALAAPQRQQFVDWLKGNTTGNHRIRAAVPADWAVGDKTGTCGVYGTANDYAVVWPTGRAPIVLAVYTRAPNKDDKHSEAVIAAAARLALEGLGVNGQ
Chain of CMY-2 (Q48434 21-381, species assumed): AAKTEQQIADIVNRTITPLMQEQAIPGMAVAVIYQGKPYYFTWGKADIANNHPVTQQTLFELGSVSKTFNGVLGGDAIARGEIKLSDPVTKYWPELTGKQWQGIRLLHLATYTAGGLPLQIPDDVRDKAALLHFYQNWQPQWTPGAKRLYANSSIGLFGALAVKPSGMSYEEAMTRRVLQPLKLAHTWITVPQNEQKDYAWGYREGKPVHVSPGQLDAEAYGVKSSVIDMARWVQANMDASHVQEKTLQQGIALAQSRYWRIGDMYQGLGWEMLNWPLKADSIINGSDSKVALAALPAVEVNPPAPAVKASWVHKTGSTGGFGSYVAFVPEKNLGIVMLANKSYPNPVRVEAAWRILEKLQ
Chain of SHV-12 (P0AD64 22-286 L31Q/G234S/E235K): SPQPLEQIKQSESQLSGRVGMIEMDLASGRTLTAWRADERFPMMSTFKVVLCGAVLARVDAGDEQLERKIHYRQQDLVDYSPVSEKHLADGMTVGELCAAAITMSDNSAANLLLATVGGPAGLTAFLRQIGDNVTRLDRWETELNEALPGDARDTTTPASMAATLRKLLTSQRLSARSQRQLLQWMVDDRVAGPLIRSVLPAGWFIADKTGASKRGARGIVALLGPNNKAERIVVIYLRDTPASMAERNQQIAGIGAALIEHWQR
Chain of P99 (P05364 21-381): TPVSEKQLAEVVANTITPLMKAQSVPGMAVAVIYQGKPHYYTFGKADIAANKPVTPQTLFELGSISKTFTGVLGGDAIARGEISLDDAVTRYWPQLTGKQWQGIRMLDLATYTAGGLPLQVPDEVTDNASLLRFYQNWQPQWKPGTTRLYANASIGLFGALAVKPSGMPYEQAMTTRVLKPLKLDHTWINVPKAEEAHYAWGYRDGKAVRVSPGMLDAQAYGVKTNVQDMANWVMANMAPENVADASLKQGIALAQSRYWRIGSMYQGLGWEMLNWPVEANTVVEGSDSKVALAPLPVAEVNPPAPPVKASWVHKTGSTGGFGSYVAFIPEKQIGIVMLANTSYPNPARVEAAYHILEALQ

Structure (SMILES)	MPC@4 aztreonam potentiation [1]	MPC@4 aztreonam potentiation [2]	MPC@4 aztreonam potentiation [3]	MPC@4 aztreonam potentiation [4]	MPC@4 aztreonam potentiation [5]	MPC@4 aztreonam potentiation [6]	MPC@4 aztreonam potentiation [7]	MPC@4 tigemonam potentiation [8]	MPC@4 tigemonam potentiation [9]	MPC@4 tigemonam potentiation [10]	MPC@4 tigemonam potentiation [11]	MPC@4 tigemonam potentiation [12]	MPC@4 tigemonam potentiation [13]	MPC@4 tigemonam potentiation [14, 26]	Ki [15]	Ki [17, 27]	Ki [18]	Ki [19]	MPC@1 biapenem potentiation [21]	MPC@1 biapenem potentiation [22]	further results
Cc1nnc(SCC(=O)N[C@H]2CC=C[C@@H]3CC(=O)OB2O3)s1 [Compound 8, 2-(5-METHYL-1,3,4-THIADIAZOL-2-YLTHIO)-N-((2R,6S)-8-OXO-9,10-DIOXA-1-BORABICYCLO[4.3.1]DEC-4-EN-2-YL)ACETAMIDE]	X (X = MPC@4 ≤ 5 μg/mL)	X (X = MPC@4 ≤ 5 μg/mL)	X (X = MPC@4 ≤ 5 μg/mL)	X (X = MPC@4 ≤ 5 μg/mL)	Y (Y = 5 μg/mL < MPC@4 ≤ 20 μg/mL)	X (X = MPC@4 ≤ 5 μg/mL)	Y (Y = 5 μg/mL < MPC@4 ≤ 20 μg/mL)	Y (Y = 5 μg/mL < MPC@4 ≤ 20 μg/mL)	X (key: X = MPC@4 ≤ 5 μg/mL; Y = 5 μg/mL < MPC@4 ≤ 20 μg/mL; Z = MPC@4 > 20 μg/mL)	Y (Y = 5 μg/mL < MPC@4 ≤ 20 μg/mL)	X (key: X = MPC@4 ≤ 5 μg/mL; Y = 5 μg/mL < MPC@4 ≤ 20 μg/mL; Z = MPC@4 > 20 μg/mL)	Y (Y = 5 μg/mL < MPC@4 ≤ 20 μg/mL)	X (X = MPC@4 ≤ 5 μg/mL)	X (X = MPC@4 ≤ 5 μg/mL)	< 100 nM	< 100 nM	100 to 1000 nM	< 100 nM	X (X = MPC@1 ≤ 5 μg/mL)	Z (Z = MPC@1 > 20 μg/mL)	Ki [16]: < 100 nM; Ki [20]: < 100 nM
C[C@]1(Cn2ccnn2)[C@H](C(=O)O)N2C(=O)C[C@H]2S1(=O)=O [Tazobactam, reference compound]	Y (Y = 5 μg/mL < MPC@4 ≤ 20 μg/mL)		X (X = MPC@4 ≤ 5 μg/mL)	X (X = MPC@4 ≤ 5 μg/mL)	Z (Z = MPC@4 > 20 μg/mL)	Z (Z = MPC@4 > 20 μg/mL)	Y (Y = 5 μg/mL < MPC@4 ≤ 20 μg/mL)			X (X = MPC@4 ≤ 5 μg/mL)		X (X = MPC@4 ≤ 5 μg/mL)		X (X = MPC@4 ≤ 5 μg/mL)			> 1000 nM	100 to 1000 nM	Z (Z = MPC@1 > 20 μg/mL)	Y (Y = 5 μg/mL < MPC@1 ≤ 20 μg/mL)	MPC@4 aztreonam potentiation [23]: Y (Y = 5 μg/mL < MPC@4 ≤ 20 μg/mL); MPC@4 tigemonam potentiation ([9]; tigemonam 4 μg/mL, KP1009, CTX-M-15): Y (Y = 5 μg/mL < MPC@4 ≤ 20 μg/mL); MPC@4 tigemonam potentiation ([11]; tigemonam 4 μg/mL, KP1010, SHV-12): X (X = MPC@4 ≤ 5 μg/mL); Ki [17]: 100 to 1000 nM
N#CCSCC(=O)N[C@H]1CC=C[C@@H]2CC(=O)OB1O2 [Compound 2, 2-(CYANOMETHYLTHIO)-N-((2R,6S)-8-OXO-9,10-DIOXA-1-BORABICYCLO[4.3.1]DEC-4-EN-2-YL)ACETAMIDE]	X (X = MPC@4 ≤ 5 μg/mL)	X (X = MPC@4 ≤ 5 μg/mL)	X (X = MPC@4 ≤ 5 μg/mL)	X (X = MPC@4 ≤ 5 μg/mL)	X (X = MPC@4 ≤ 5 μg/mL)	X (X = MPC@4 ≤ 5 μg/mL)	X (X = MPC@4 ≤ 5 μg/mL)	X (X = MPC@4 ≤ 5 μg/mL)	X (key: X = MPC@4 ≤ 5 μg/mL; Y = 5 μg/mL < MPC@4 ≤ 20 μg/mL; Z = MPC@4 > 20 μg/mL)	X (X = MPC@4 ≤ 5 μg/mL)	X (key: X = MPC@4 ≤ 5 μg/mL; Y = 5 μg/mL < MPC@4 ≤ 20 μg/mL; Z = MPC@4 > 20 μg/mL)	Y (Y = 5 μg/mL < MPC@4 ≤ 20 μg/mL)	X (X = MPC@4 ≤ 5 μg/mL)	X (X = MPC@4 ≤ 5 μg/mL)	< 100 nM	< 100 nM	100 to 1000 nM	100 to 1000 nM	X (X = MPC@1 ≤ 5 μg/mL)	Z (Z = MPC@1 > 20 μg/mL)	MPC@4 aztreonam potentiation [23]: X (X = MPC@4 ≤ 5 μg/mL); Ki [16]: < 100 nM; Ki [20]: < 100 nM; PAM1032/KPC-2 Biapenem MPC64 [24]: 80; PAM1154/KPC-2 Biapenem MPC64 [25]: 5
O=C(O)[C@H]1/C(=C/CO)O[C@@H]2CC(=O)N21 [Clavulanic Acid, reference compound]	X (X = MPC@4 ≤ 5 μg/mL)	X (X = MPC@4 ≤ 5 μg/mL)	X (X = MPC@4 ≤ 5 μg/mL)	X (X = MPC@4 ≤ 5 μg/mL)	Z (Z = MPC@4 > 20 μg/mL)	Z (Z = MPC@4 > 20 μg/mL)	Z (Z = MPC@4 > 20 μg/mL)	X (X = MPC@4 ≤ 5 μg/mL)	X (key: X = MPC@4 ≤ 5 μg/mL; Y = 5 μg/mL < MPC@4 ≤ 20 μg/mL; Z = MPC@4 > 20 μg/mL)	X (X = MPC@4 ≤ 5 μg/mL)	X (key: X = MPC@4 ≤ 5 μg/mL; Y = 5 μg/mL < MPC@4 ≤ 20 μg/mL; Z = MPC@4 > 20 μg/mL)	X (X = MPC@4 ≤ 5 μg/mL)	Y (Y = 5 μg/mL < MPC@4 ≤ 20 μg/mL)		< 100 nM	> 1000 nM	> 1000 nM	> 1000 nM	Y (Y = 5 μg/mL < MPC@1 ≤ 20 μg/mL)	Z (Z = MPC@1 > 20 μg/mL)	MPC@4 aztreonam potentiation [23]: X (X = MPC@4 ≤ 5 μg/mL); MPC@4 tigemonam potentiation [14]: Y (key: X = MPC@4 ≤ 5 μg/mL; Y = 5 μg/mL < MPC@4 ≤ 20 μg/mL; Z = MPC@4 > 20 μg/mL)
